Values belong to the compound of their own block, whether it stands above or below them. Active and inactive are the calls of the source.
How the values were obtained:
[1] = tested on: HEK293; test: NOD1 signaling inhibitors, primary screen, cell-based, luminescence, uHTS (AID 1578); type: functional; conditions: Homo sapiens
[2] = tested on: HEK293; test: cells; type: functional, cell-based; conditions: Homo sapiens
[3] = tested on: HEK293; test: cells; type: functional, cell-based; conditions: Homo sapiens; remark: listed apart in the source
[4] = tested on: HEK293; test: NOD2 signaling inhibitors in MDP-stimulated cells, cell-based, uHTS, luminescence (AID 2001); type: functional; conditions: Homo sapiens
[5] = molecular target: Tumor necrosis factor (Homo sapiens, UniProt P01375); test: TNFa-triggered NF-kB activation inhibitors, SAR follow-up, cell-based, revised (AID 2337); type: functional
[6] = molecular target: T1, Nucleotide-binding oligomerization domain-containing protein 1 (Homo sapiens, UniProt Q9Y239); test: NOD1 signaling inhibitors, SAR follow-up, revised (AID 2333); type: functional
T1 sequence (Q9Y239 whole entry): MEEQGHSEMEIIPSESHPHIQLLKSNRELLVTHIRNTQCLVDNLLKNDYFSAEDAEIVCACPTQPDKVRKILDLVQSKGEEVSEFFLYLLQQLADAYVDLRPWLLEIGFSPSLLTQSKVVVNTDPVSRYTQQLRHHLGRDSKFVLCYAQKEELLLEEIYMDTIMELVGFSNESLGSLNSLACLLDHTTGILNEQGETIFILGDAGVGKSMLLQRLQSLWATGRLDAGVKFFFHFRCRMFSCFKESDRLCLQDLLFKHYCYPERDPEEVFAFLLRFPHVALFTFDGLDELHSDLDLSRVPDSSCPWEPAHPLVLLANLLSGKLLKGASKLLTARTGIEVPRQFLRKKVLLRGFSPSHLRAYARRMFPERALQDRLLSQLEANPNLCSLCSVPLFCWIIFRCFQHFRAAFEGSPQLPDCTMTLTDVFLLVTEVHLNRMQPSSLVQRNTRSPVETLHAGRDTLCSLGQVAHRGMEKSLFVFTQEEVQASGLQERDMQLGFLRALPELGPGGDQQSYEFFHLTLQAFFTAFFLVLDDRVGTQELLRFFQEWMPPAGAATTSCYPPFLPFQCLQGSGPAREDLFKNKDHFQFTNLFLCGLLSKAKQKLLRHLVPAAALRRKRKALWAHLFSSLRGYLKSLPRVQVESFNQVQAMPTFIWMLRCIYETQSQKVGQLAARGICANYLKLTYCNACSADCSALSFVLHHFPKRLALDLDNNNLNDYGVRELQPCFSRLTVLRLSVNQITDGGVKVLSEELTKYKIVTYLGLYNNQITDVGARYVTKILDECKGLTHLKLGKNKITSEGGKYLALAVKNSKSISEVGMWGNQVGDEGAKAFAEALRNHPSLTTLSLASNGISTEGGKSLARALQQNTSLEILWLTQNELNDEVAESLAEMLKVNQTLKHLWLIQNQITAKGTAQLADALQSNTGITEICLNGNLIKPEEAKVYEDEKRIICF

[7] = molecular target: T2, Ubiquitin-conjugating enzyme E2 N (Homo sapiens, UniProt P61088); type: functional;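 note: Dose-response confirmation in a TR-FRET assay detecting UBC13-driven polyubiquitin chain formation, inhibition measured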
T2 sequence (P61088 whole entry): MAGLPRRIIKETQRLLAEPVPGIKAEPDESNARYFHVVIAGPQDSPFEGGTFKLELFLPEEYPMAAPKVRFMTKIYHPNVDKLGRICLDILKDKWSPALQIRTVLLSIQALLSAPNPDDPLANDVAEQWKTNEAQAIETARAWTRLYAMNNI

[8] = molecular target: Nucleotide-binding oligomerization domain-containing protein 2 (Homo sapiens, UniProt Q9HC29); test: PubChem AID 2334; type: functional
Nucleotide-binding oligomerization domain-containing protein 2, sequence (Q9HC29 whole entry, the tested form may be a part): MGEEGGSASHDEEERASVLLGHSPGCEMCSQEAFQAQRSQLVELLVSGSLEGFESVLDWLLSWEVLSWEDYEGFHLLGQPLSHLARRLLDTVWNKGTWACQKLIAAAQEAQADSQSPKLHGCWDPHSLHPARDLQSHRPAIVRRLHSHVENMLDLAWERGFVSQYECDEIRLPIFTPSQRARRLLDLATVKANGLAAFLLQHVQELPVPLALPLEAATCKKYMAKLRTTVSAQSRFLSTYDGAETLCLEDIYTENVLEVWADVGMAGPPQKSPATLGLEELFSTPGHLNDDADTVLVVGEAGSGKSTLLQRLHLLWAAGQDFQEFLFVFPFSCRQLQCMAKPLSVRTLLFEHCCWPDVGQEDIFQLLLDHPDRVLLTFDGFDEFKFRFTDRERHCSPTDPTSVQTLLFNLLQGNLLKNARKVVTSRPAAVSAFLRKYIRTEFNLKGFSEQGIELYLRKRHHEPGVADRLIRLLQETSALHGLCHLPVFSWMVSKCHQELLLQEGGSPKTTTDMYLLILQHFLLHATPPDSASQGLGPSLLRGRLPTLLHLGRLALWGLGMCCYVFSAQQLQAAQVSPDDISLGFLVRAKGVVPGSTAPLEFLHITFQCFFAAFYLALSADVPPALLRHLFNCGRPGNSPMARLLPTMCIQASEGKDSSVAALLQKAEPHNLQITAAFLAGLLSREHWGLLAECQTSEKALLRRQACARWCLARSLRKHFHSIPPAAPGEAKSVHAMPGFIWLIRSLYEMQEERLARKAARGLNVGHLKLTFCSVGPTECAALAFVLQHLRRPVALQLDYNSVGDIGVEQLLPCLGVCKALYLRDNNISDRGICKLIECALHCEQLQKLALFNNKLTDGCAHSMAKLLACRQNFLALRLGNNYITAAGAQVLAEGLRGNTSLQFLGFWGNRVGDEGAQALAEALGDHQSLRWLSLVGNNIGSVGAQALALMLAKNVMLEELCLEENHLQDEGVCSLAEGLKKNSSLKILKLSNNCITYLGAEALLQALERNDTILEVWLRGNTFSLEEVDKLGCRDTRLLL

[9] = tested on: HEK293; test: cells; conditions: Homo sapiens
[10] = molecular target: T3, Eukaryotic translation initiation factor 2-alpha kinase 3 (Homo sapiens, UniProt Q9NZJ5); test: Dose response cell-based high-throughput screening assay to measure PERK inhibition. [Related pubchem assays: 1416 ]; type: functional
T3 sequence (Q9NZJ5 whole entry): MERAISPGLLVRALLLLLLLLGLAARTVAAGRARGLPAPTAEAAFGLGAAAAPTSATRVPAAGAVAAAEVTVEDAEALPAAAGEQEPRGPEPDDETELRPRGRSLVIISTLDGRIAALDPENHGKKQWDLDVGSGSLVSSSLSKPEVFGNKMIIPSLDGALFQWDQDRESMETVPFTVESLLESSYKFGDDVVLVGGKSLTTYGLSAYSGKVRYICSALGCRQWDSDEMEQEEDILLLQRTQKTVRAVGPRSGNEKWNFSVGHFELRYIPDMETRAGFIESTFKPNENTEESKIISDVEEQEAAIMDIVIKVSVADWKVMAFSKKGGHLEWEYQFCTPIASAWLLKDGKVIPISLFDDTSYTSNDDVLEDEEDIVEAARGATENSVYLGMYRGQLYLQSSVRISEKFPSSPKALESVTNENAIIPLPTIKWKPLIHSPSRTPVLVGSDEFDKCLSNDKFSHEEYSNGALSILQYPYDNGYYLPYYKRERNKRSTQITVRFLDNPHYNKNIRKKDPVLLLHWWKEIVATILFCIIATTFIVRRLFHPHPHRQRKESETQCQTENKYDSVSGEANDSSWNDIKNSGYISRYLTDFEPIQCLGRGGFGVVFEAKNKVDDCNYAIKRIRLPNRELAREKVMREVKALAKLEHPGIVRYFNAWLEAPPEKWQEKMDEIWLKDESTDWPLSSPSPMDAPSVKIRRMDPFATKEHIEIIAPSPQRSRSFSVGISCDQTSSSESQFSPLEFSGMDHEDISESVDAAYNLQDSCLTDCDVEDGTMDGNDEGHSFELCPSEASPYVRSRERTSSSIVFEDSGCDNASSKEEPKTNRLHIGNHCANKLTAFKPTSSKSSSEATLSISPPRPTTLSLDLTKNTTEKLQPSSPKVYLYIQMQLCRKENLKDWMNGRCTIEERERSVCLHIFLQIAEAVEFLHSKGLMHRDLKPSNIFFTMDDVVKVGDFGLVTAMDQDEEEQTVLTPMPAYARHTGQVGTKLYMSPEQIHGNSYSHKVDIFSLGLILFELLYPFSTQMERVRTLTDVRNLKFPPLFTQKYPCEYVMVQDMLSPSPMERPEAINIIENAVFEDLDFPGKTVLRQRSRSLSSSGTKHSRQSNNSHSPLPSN

[11] = molecular target: T3, Eukaryotic translation initiation factor 2-alpha kinase 3; test: Counterscreen assay for PERK inhibitors: Dose response cell-based high throughput screening assay to measure inhibition of PERK at 6 hours. [Related pubchem assays: 1522, 1416 ]; type: functional
[12] = molecular target: T4, Short transient receptor potential channel 4 (Mus musculus, UniProt Q9QUQ5); test: mouse TRPC4 channel inhibitors, dose response, cell-based, HEK293 TRPC4/mu-opioid, Fluo-4 calcium (AID 434942); type: functional;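 note: potency of inhibitors blocking the TRPC4 calcium response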
T4 sequence (Q9QUQ5 whole entry): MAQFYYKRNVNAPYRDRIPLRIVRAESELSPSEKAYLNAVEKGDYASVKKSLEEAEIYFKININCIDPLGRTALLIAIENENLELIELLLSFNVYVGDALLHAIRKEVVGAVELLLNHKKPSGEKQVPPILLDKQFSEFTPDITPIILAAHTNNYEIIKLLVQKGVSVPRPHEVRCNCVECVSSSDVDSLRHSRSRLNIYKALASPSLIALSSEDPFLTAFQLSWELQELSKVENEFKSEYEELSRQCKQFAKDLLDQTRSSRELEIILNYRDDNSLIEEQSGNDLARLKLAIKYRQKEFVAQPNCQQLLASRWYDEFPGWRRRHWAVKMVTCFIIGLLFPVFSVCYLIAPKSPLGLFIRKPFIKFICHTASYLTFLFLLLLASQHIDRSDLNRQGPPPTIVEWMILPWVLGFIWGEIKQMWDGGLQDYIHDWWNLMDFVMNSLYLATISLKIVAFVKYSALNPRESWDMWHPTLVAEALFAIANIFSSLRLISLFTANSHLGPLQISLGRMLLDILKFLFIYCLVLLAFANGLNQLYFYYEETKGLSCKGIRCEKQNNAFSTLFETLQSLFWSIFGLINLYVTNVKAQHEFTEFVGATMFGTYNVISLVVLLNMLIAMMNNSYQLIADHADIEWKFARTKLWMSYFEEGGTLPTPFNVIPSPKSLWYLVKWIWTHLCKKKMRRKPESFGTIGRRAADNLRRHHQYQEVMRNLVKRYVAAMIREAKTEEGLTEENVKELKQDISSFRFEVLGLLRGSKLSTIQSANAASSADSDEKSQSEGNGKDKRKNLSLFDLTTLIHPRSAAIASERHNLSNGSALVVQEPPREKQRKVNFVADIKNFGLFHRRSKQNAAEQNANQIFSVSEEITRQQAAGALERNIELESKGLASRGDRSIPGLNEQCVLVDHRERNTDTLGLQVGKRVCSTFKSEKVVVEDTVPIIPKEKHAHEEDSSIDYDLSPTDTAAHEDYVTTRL

[13] = molecular target: Eukaryotic translation initiation factor 4E (Mus musculus, UniProt P63073); test: eIF4E–eIF4G protein interaction inhibitors, dose response, biochemical, TR-FRET (AID 855); type: functional;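 note: potency for disrupting eIF4E binding to eIF4GI seen as loss of FRET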
Eukaryotic translation initiation factor 4E, sequence (P63073 whole entry): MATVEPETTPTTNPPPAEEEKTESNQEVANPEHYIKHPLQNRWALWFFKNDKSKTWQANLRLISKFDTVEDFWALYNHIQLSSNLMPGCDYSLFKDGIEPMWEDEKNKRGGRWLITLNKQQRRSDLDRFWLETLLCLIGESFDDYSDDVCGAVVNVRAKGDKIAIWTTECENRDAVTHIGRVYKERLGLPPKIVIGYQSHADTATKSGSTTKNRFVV

[14] = molecular target: Genome polyprotein (Hepatitis C virus, UniProt Q2Q167); test: HCV core protein dimerization inhibitors, dose response, biochemical, TR-FRET (AID 2159); set-up: species or system Hepacivirus hominis;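 note: blocks dimerization of HCV core protein measured by TR-FRET between tagged core106 pairs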
Genome polyprotein, sequence (Q2Q167 whole entry): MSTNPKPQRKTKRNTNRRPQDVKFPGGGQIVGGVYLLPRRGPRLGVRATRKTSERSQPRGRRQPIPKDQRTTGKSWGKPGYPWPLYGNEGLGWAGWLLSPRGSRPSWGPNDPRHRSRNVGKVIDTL

[15] = molecular target: T5, Heat shock 70 kDa protein 1A (Homo sapiens, UniProt P0DMV8); test: Hsp70 inhibitors, biochemical, TR-FRET (AID 786)
T5 sequence (P0DMV8 whole entry): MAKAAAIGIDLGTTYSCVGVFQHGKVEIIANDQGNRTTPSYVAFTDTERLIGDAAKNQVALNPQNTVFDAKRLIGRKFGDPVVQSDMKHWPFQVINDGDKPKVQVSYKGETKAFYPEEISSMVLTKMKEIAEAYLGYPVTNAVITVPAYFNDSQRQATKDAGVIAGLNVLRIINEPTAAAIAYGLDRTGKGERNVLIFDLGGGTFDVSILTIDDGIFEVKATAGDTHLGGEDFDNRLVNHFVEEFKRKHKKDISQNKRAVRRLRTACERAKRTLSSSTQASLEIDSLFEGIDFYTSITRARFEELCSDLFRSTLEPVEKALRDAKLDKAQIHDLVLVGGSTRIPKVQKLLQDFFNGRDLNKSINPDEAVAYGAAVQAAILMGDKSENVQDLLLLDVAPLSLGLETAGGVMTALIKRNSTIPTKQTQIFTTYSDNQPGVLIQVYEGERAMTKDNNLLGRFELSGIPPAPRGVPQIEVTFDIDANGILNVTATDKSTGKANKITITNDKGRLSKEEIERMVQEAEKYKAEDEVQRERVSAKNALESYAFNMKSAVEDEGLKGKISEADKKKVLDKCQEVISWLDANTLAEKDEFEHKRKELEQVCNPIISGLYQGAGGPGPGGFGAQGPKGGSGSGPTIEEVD

[16] = molecular target: T5, Heat shock 70 kDa protein 1A; test: Hsp70 inhibitors, probe displacement, primary screen, biochemical, fluorescence polarization (AID 583)
[17] = molecular target: Induced myeloid leukemia cell differentiation protein Mcl-1 (Homo sapiens, UniProt Q07820); test: MCL1-BIM BH3 interaction inhibitors, dose response, biochemical, fluorescence polarization, BIM-BH3 peptide, 1536-well (AID 2217)
[18] = molecular target: Bcl-2-like protein 1 (Homo sapiens, UniProt Q07817); test: BCL-XL inhibitors, dose response, selectivity assay for MCL1 inhibitor project, biochemical, fluorescence polarization, 1536-well (AID 2218)
[19] = molecular target: Luciferin 4-monooxygenase (Photinus pyralis, UniProt P08659); test: firefly luciferase enzyme inhibitors, dose response, biochemical, luminescence (AID 1891)
Luciferin 4-monooxygenase, sequence (P08659 whole entry): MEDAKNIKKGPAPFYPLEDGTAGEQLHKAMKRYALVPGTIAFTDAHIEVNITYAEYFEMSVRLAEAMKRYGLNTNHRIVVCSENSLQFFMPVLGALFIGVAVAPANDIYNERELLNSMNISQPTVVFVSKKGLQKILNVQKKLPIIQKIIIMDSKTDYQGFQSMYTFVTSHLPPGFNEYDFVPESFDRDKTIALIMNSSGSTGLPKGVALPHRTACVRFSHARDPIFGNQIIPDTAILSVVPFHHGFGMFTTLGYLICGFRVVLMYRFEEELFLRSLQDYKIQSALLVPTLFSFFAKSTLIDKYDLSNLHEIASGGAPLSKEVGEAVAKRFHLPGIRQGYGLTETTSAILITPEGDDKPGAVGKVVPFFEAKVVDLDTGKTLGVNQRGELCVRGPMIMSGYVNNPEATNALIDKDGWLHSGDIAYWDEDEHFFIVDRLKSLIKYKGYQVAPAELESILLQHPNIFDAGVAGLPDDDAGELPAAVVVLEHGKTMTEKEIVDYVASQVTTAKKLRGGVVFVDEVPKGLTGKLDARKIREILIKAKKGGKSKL

[20] = Luminescence Cell-Based Dose Confirmation HTS to Identify Inhibitors of Platelet Dense Granule Release. [Related pubchem assays: 1663 (Primary HTS), 1678 (Summary of Project)]; type: functional
[21] = inhibition of ADP-Glo detection reagents, dose response, artefact control for CDK5 inhibitor project, biochemical, luminescence, cherry-picked samples, set 2 (AID 504546); type: functional
[22] = molecular target: Cyclin-dependent kinase 5/CDK5 activator 1 (Homo sapiens, UniProt Q00535); test: CDK5/p35 kinase inhibitors, dose response, biochemical, cherry-picked samples, set 2 (AID 504545)
Cyclin-dependent kinase 5/CDK5 activator 1, sequence (Q00535 whole entry): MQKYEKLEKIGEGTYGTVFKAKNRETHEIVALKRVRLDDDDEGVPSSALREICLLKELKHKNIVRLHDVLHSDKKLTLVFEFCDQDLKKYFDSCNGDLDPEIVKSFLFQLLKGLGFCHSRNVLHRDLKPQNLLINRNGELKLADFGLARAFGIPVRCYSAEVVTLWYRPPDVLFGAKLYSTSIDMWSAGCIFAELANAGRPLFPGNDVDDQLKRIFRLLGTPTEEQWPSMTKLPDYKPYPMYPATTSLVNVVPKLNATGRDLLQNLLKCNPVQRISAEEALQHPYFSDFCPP
Cyclin-dependent kinase 5/CDK5 activator 1, sequence (Q15078 whole entry, further chain): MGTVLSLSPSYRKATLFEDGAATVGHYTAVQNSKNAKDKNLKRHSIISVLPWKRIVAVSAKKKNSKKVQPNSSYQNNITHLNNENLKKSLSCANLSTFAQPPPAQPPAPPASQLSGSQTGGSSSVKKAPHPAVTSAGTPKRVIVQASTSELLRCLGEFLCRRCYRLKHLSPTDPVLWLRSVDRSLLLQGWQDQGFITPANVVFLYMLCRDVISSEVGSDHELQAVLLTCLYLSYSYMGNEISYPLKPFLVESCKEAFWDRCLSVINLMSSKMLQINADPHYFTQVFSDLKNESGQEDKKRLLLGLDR

[23] = molecular target: Serine/threonine-protein phosphatase PP1-alpha catalytic subunit (Homo sapiens, UniProt P62136); test: PP1 phosphatase inhibitors, dose response, biochemical, fluorescence (AID 2403);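 note: phosphatase turnover of OMFP into fluorescent 3-O-methylfluorescein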
[24] = molecular target: Serine/threonine-protein phosphatase (Homo sapiens, UniProt Q9BPW0); test: Counterscreen for inhibitors of PP1: fluorescence-based biochemical high throughput dose response assay to identify inhibitors of Protein Phosphatase 5 (PP5). [Related pubchem assays: 2034 (Summary (PP5 inhibitors)), 1987 (PP5 inhibitors in singlate), 2235 (PP1 inhibitors in singlate)]
Serine/threonine-protein phosphatase, sequence (Q9BPW0 whole entry): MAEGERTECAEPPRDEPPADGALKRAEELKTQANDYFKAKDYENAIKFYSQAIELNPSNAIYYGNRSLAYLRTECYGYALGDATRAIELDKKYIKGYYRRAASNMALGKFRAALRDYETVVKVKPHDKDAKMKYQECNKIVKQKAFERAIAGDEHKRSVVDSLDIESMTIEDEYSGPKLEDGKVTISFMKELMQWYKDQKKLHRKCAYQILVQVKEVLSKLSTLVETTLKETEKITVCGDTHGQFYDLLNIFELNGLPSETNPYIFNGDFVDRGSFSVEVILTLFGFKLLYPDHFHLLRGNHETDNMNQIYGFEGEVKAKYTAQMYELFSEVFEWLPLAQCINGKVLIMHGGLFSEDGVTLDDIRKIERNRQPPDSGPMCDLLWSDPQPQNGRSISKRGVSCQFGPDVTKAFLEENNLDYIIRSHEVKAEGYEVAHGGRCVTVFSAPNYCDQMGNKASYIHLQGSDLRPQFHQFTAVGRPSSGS

[25] = molecular target: Acyl-homoserine lactone acylase PvdQ (Pseudomonas aeruginosa (strain LESB58), UniProt Q9I194); test: P. aeruginosa PvdQ acylase inhibitors, dose response, biochemical, fluorescence, plate reader and imaging, cherry-picks (AID 493231)

SMILES: O=S(=O)(Nc1nc2ccccc2[nH]1)c1ccc(Cl)cc1
EC50 [1]: 2.29 µM (active)
IC50 [2]: > 20 µM (inactive)
IC50 [3]: > 20 µM (inactive)
IC50 [4]: > 20 µM (inactive)
IC50 [5]: > 20 µM (inactive)
IC50 [6]: 1.52 µM (active)
IC50 [7]: > 20 µM (inactive)
IC50 [8]: > 20 µM (inactive)
IC50 [9]: > 20 µM (inactive)

EC50 [10]: > 55.7 µM (not active)
EC50 [11]: > 55.7 µM (not active)
EC50 [12]: 1.19 µM (active)
IC50 [13]: 50 µM (inactive)
SMILES: Cc1cc(/C=C2/C(=N)N3C(=NC2=O)SN=C3S(C)(=O)=O)c(C)n1-c1ccccc1F

IC50 [14]: > 49.8 µM (not active)
IC50 [15]: > 100 µM (not active)
IC50 [16]: > 100 µM (not active)
IC50 [17]: 10.8 µM (not active)
IC50 [18]: > 109 µM (not active)
SMILES: COc1ccc(Br)cc1/C=c1\sc2nc(-c3ccco3)nn2c1=O

SMILES: COc1ccc(C(=O)O/N=C(/C)c2cccs2)cc1
EC50 [19]: 0.517 µM (active)
EC50 [20]: 1.34 µM (active)
AC50 [21]: 31.8 µM (active)
AC50 [22]: 15.7 µM (active)

SMILES: COc1ccc2c(Cl)c(C(=O)N/N=C/c3ccncc3)sc2c1
IC50 [23]: 6.48 µM (active)
IC50 [24]: > 67 µM (not active)

SMILES: COc1ccc(/C(C#N)=C/c2ccccn2)cc1
AC50 [25]: 19.9 µM (active)

Source: ChEMBL document CHEMBL1201862, “PubChem BioAssay data set” (2004)
